The source of these data is PMC6523311, “Synthesis and Biological Evaluation of RGD–Cryptophycin Conjugates for Targeted Drug Delivery” (Pharmaceutics, 2019).

The structures appear in SMILES notation.

A word on the IC50: it is the midpoint of a concentration-inhibition curve.

Data set [1] in a line: plasma metabolic stability assay, mouse plasma. To be noted: 24 h. It is filed as in vitro ADME. The method, then: (§1) The sample preparation and the metabolic analysis of the conjugates was carried out similarly to a previously described method. In a 96-well plate, the stock solutions (3 mM in dimethyl sulfoxide (DMSO)) of the conjugates and the control compound were diluted with 250 μL of plasma (pooled heparinized mouse ICR/CD1 M plasma #08 or human plasma #MPLLIHP-M, #BHR1003077, BioreclamationIVT, Westbury, NY, USA) to give a 3-µM concentration and incubated at 37 °C. At each sampling time an aliquot of 30 µL was transferred into a 96-deep-well plate and the reaction was stopped with 120 µL of acetonitrile (ACN) containing 0.1% HCOOH and 400 ng/mL of warfarin as internal standard (IS). This mixture was centrifuged at 1100× g for 30 min at 4 °C and 50 µL of supernatants were transferred into a clean 96-deep-well plate and diluted with 50 µL of 0.1% HCOOH in water. Samples were stored at −80 °C prior to UPLC-HRMS analysis (see Supplementary Materials). The stability was determined based on the disappearance of the test compound as a function of incubation time, using area ratios (analyte peak area vs internal standard peak area). The elimination constant k was calculated by plotting mean disappearance values on a semi-logarithmic scale and fitting with a best fit linear regression using Microsoft Excel. The half-life (t1/2) expressed in hours was determined using equation: t1/2 = ln2/(−k). […]

For data set [2], the system named is M21 human melanoma cells (αvβ3+). Nature of the data set: MTT in vitro cytotoxicity assay, M21. It counts as cell-based. To be noted: for IC50: Homo sapiens, MTT, 2 h treatment and additional 70 h incubation. The method, then: (§2) The human melanoma M21 and M21-L cells were kindly provided by Dr. David Cheresh and The Scripps Research Institute (La Jolla, CA, USA). Cells were cultured in RPMI 1640 supplemented with 10% fetal bovine serum (FBS), 1% L-glutamine and 1% Penicillin/Streptomycin in a humidified incubator at 37 °C and 5% CO2.
(§3) Cell viability was quantified by 3-(4,5-dimethylthiazol-2-yl)-2,5-diphenyltetrazolium bromide (MTT) assay. Cells were plated at a density of 3000 cells/well (Nunc® MicroWell® flat-bottom 96-well plate, Thermo Fisher Scientific) and incubated overnight to allow adherence. The following day, cells were treated with serial dilutions of each compound or 0.1% DMSO as control. After 2 h of incubation, cells were centrifuged at 1200 rpm for 5 min; supernatant containing the compounds was removed and replaced with fresh medium. Cells were further incubated for 70 h as described above, and at the end of treatment, 5 µL of MTT (5 mg/mL in deionized H2O, #M5655, Sigma Aldrich) were added to each well and the cells incubated for another 2 h. Finally, 100 µL of lysis buffer (10% SDS, 10 mM HCl) were added, and cells were placed in the incubator overnight for the formazan crystal solubilization. Absorbance at 540 nm was measured using FLUOstar Omega (BMG Labtech, Ortenberg, Germany) instrument and the growth inhibition ratio was calculated. Blank controls detecting cell-free media absorbance were performed in parallel. Three experimental replicates were used. The half-maximal inhibitory concentration values (IC50) were obtained from viability curves by fitting data to the four-parameter logistic equation using GraphPad Prism 6 (GraphPad Software, San Diego, CA, USA). The cell viability was expressed as percentage relative to the respective control conditions.

The test system of data set [3] is M21-L human melanoma cells (αv-, αvβ3-). Nature of the data set: MTT in vitro cytotoxicity assay, M21-L. Particulars: 2 h treatment and additional 70 h incubation. It is filed as cell-based. How it is done: as §2, §3
Data set [4] is described as follows: plasma metabolic stability assay, human plasma. It counts as in vitro ADME. Particulars: 24 h. How it is done: as §1
For data set [5], the target named is T1, human αvβ3 integrin (Homo sapiens, UniProt P05106+P06756, DEL719-788).
T1 construct: purchased R&D Systems 3050-AV-050
Nature of the data set: competitive ELISA-like integrin binding assay (immobilized vitronectin, soluble integrin). To be noted: competition with immobilized vitronectin.

Data set [6] has as its target T2, bovine spleen cathepsin B (Bos taurus, UniProt P07688).
T2 construct: cathepsin B (bovine spleen cathepsin B, #C6286, Sigma Aldrich); purchased Sigma Aldrich C6286; host or cells: bovine spleen
Nature of the data set: cathepsin B cleavage assay. Particulars: cathepsin B 1 U/mL, 37 °C, pH 5.5, 5 µM substrate. It is filed as in vitro ADME. The method, then:
L-cysteine (#C8152, Sigma Aldrich) was dissolved in acetate buffer/ethylenediaminetetraacetic acid (EDTA) 1 mM pH 5.5 to get a solution with a final concentration of L-cysteine of 28 mM. This solution was used to dilute an aliquot of cathepsin B (bovine spleen cathepsin B, #C6286, Sigma Aldrich) to 1.11 U/mL. Sample containing cathepsin B was pre-incubated at 37 °C for 15 min and then split into 45-µL aliquots in Eppendorf tubes, two replicates for each incubation time. Aliquots of 5 µL of 50 µM solutions of the substrates prepared in MeOH/H2O (50/50) were added to each tube, to get a final concentration of 5 µM. Tubes corresponding to t = 0 min contained 100 µL of 1% HCOOH in MeOH and were put in an ice bath to stop the reaction. All the other tubes were incubated at 37 °C in an oscillating thermostatic bath and reaction was stopped at the following incubation times: 0.25, 0.5, 1, 2, 4, and 6 h, as described for t = 0 min samples. Samples were centrifuged for 10 min at 14,000 rpm at 4 °C and filtered with regenerated cellulose syringe filters prior to injection in the HPLC-MS system (see Supplementary Materials). […] Substrates and possible metabolites were quantified based on calibration curves prepared in acetate buffer/EDTA/L-cysteine.

Turning to `COc1ccc(C[C@H]2NC(=O)/C=C/C[C@@H]([C@H](C)[C@H]3O[C@@H]3c3ccccc3)OC(=O)[C@H](CC(C)C)OC(=O)C(C)(C)CNC2=O)cc1Cl` [compound 2, cryptophycin-52, reference compound], the “stability in mouse plasma” value in data set [1] was “significant metabolism”. In addition, the figures for the IC50 in data set [2] and in data set [3] were 0.07 nM and 0.02 nM, respectively. For the same compound, the “fold higher biological activity than cryptophycin-55 glycinate” value in data set [2] (M21 and M21-L cells, same test conditions) was 10-20 fold.
Consider `COc1ccc(C[C@H]2NC(=O)/C=C/C[C@@H]([C@H](C)[C@@H](OC(=O)CN)[C@@H](Cl)c3ccccc3)OC(=O)[C@H](CC(C)C)OC(=O)C(C)(C)CNC2=O)cc1Cl` [compound 4, Cryptophycin-55 glycinate], for which the “stability in human plasma” value in data set [4] was “good stability”. In addition, the “stability in mouse plasma” value in data set [1] was “markedly improved stability compared to the parent compound”. Also, the IC50 in data set [2] is 0.75 ± 0.11 nM; in data set [3], 0.14 ± 0.08 nM.
Consider `[N-]=[N+]=NCCC(=O)NCCCC[C@@H]1NC(=O)[C@@H](Cc2ccccc2)NC(=O)[C@H](CC(=O)O)NC(=O)CNC(=O)[C@H](CCCNC(=N)N)NC1=O` [compound 9], for which the IC50 in data set [5] was 0.71 nM. In other words, the sub-nanomolar range.
`COc1ccc(C[C@H]2NC(=O)/C=C/C[C@@H]([C@H](C)[C@@H](OC(=O)CNC(=O)[C@@H]3CCCN3C(=O)CN)[C@@H](Cl)c3ccccc3)OC(=O)[C@H](CC(C)C)OC(=O)C(C)(C)CNC2=O)cc1Cl` [compound 12, Gly-Pro-Cry-55gly]: in data set [6], the “cleavage and metabolism upon incubation with cathepsin B” value is recorded as “not further metabolized to cryptophycin-55 glycinate”. Moreover, the IC50 in data set [2] turned out to be 0.15 ± 0.03 nM; in data set [3], 0.039 ± 0.01 nM.
